# According to US11807693B2 (priority 2014, dated 2023):
# Like-named read-outs stand apart in the source and are kept apart here. Starred links: 1 amine or outer side, 2 acyl side, 3 side chain; linkers in the order of their positions; H or OH if unused. Non-standard residues stand in square brackets, D forms with d. Residues, ends and D or L forms follow the SMILES beside them. ξ: configuration not given here. *: point of attachment. dBip = N[C@H](Cc1ccc(-c2ccccc2)cc1)C(=O)O; Oic = O=C(O)[C@@H]1C[C@@H]2CCCC[C@@H]2N1; Phe(4-Cl) = N[C@@H](Cc1ccc(Cl)cc1)C(=O)O; Phe(4-I) = N[C@@H](Cc1ccc(I)cc1)C(=O)O; γGlu = O=C(O)[C@H](CCC(=O)[*:2])N[*:1]; NMeR = CN[C@@H](CCCNC(=N)N)C(=O)O; Palmitoyl = CCCCCCCCCCCCCCCC(=O)*; Tridecanoyl = CCCCCCCCCCCCC(=O)*; hArg = N=C(N)NCCCC[C@H](N)C(=O)O; Cha = N[C@@H](CC1CCCCC1)C(=O)O; NMeL = CN[C@@H](CC(C)C)C(=O)O; αMeL = CC(C)C[C@](C)(N)C(=O)O; ξαMeL = CC(C)CC(C)(N)C(=O)O; β3hP = O=C(O)C[C@@H]1CCCN1; Pip = O=C(O)[C@@H]1CCCCN1; Nle = CCCC[C@H](N)C(=O)O; ξαMeP = CC1(C(=O)O)CCCN1; ξβ3hV = CC(C)C(N)CC(=O)O; Dap = NC[C@H](N)C(=O)O; AEEA = NCCOCCOCC(=O)O; Aib = CC(C)(N)C(=O)O; NPrGly = CCCNCC(=O)O
# Columns and labels:
# human APJ receptor = biological target: T1, human APJ receptor (Homo sapiens, UniProt P35414); test: [35S] GTPγS assay, human APJ receptor; type: biochemical
# T1 construct: expressed in transfected cells
# T1 sequence (P35414 1-380): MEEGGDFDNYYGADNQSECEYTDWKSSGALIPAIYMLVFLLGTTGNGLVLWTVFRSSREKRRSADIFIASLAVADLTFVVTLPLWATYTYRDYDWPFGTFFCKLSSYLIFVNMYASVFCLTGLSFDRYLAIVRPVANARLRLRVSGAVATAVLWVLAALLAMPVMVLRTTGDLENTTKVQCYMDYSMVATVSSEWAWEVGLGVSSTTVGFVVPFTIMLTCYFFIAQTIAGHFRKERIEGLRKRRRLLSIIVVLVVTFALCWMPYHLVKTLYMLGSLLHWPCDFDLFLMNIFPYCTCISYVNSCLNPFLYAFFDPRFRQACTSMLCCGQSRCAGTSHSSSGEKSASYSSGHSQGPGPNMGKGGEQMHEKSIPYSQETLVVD
# [1] = In vitro stability in rat plasma; type: in vitro ADME
# In short: (§1)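 Apelin peptides spiked to 5 μM final into rat plasma, liver homogenate or kidney homogenate and incubated at 37° C. for up to 4 hr. Aliquots quenched with MeOH containing internal standard, centrifuged, and supernatants analysed by high-resolution LC-MS.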
# [2] = In vitro stability in rat liver homogenate; type: in vitro ADME; conditions: tissue homogenate
# In short: as §1
# [3] = In vitro stability in rat kidney homogenate; type: in vitro ADME; conditions: rat, tissue homogenate
# In short: as §1
# rat APJ receptor = biological target: T2, rat APJ receptor (Rattus norvegicus, UniProt Q9JHG3); test: [35S] GTPγS assay, rat APJ receptor; type: biochemical
# T2 construct: expressed in transfected cells
# T2 sequence (Q9JHG3 1-377): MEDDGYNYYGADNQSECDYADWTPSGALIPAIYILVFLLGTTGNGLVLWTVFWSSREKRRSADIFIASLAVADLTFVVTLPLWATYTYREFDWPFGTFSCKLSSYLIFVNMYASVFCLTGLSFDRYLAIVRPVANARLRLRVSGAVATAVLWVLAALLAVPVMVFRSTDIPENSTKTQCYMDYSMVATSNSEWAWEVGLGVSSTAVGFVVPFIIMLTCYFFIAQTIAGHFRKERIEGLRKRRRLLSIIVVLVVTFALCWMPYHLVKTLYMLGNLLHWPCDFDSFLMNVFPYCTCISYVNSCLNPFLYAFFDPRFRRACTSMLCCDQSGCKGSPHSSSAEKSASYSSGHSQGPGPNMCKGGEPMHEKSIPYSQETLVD
# Description: The membranes were incubated with modified peptides in the assay buffer. […] Bound [^35S] GTPγS was separated from free radiolabel by filtration. The filter bound radioactivity was determined by liquid scintillation counting.
# [4] = rat APJ receptor, read-out: EC50 Rat APJ Receptor
EC50 (human APJ receptor; human APJ receptor),"remaining at 4 h, 5 μM [1]","remaining at 4 h, 5 μM [2]","remaining at 4 h, 5 μM [3]",EC50 (human APJ receptor; Table 16),"EC50 (rat APJ receptor; Table 16, read-out: EC50 Rat APJ Receptor)",EC50 (rat APJ receptor; [4]),Structure (SMILES)
2.77 nM,> 90%,77.5%,71%,,,,CCCCCCCCCCCCC(=O)N[C@@H](CCC(=O)NCCOCCOCC(=O)NCCOCCOCC(=O)N[C@@H](CCCC)C(=O)N[C@H](CCCNC(=N)N)C(=O)N[C@@H](CCC(N)=O)C(=O)N[C@@H](CCCCNC(=N)N)C(=O)N1CCC[C@H]1C(=O)N[C@H](CCCNC(=N)N)C(=O)N(C)[C@@H](CC(C)C)C(=O)N[C@@H](CO)C(=O)N[C@@H](Cc1c[nH]cn1)C(=O)N[C@@H](CCCCN)C(=O)NCC(=O)N1[C@H](C(=O)N[C@@H](Cc2ccc(I)cc2)C(=O)N2CCC[C@H]2C(=O)N[C@H](Cc2ccc(-c3ccccc3)cc2)C(=O)O)C[C@@H]2CCCC[C@@H]21)C(=O)O [compound 314] ({Tridecanoyl-γGlu-AEEA-AEEA}-[Nle][dR]Q[hArg]P[dR][NMeL]SHKG[Oic][Phe(4-I)]P[dBip]-OH)
17.8 nM,> 90%,86.5%,73.4%,,,,CCCCCCCCCCCCC(=O)N[C@@H](CCC(=O)NCCOCCOCC(=O)NCCOCCOCC(=O)N[C@@H](CCCC)C(=O)N[C@H](CCCNC(=N)N)C(=O)N[C@@H](CCC(N)=O)C(=O)N[C@@H](CCCCNC(=N)N)C(=O)N1CCC[C@H]1C(=O)N[C@H](CCCNC(=N)N)C(=O)N(C)[C@@H](CC(C)C)C(=O)N[C@@H](C)C(=O)N[C@@H](Cc1c[nH]cn1)C(=O)N[C@@H](CCCCN)C(=O)NCC(=O)N1[C@H](C(=O)N[C@@H](Cc2ccc(I)cc2)C(=O)N2CCC[C@H]2C(=O)N[C@H](Cc2ccc(-c3ccccc3)cc2)C(=O)O)C[C@@H]2CCCC[C@@H]21)C(=O)O [compound 320] ({Tridecanoyl-γGlu-AEEA-AEEA}-[Nle][dR]Q[hArg]P[dR][NMeL]AHKG[Oic][Phe(4-I)]P[dBip]-OH)
,81.5%,2.5%,2%,0.0519 nM,,,CCCCCCCCCCCCC(=O)N[C@@H](CCC(=O)NCCOCCOCC(=O)NCCOCCOCC(=O)N[C@@H](CCC(N)=O)C(=O)N[C@@H](CCCNC(=N)N)C(=O)N1CCC[C@H]1C(=O)N[C@@H](CCCCNC(=N)N)C(=O)N[C@@](C)(CC(C)C)C(=O)N[C@@H](CO)C(=O)N[C@@H](Cc1c[nH]cn1)C(=O)N[C@@H](CCCCN)C(=O)NCC(=O)N1[C@H](C(=O)N[C@@H](CCCC)C(=O)N2CCC[C@H]2C(=O)N[C@@H](Cc2ccc(Cl)cc2)C(=O)O)C[C@@H]2CCCC[C@@H]21)C(=O)O [compound 360] ({Tridecanoyl-γGlu-AEEA-AEEA}-QRP[hArg][αMeL]SHKG[Oic][Nle]P[Phe(4-Cl)]-OH)
,58%,6%,4%,0.0934 nM,,,CCCCCCCCCCCCC(=O)N[C@@H](CCC(=O)NCCOCCOCC(=O)NCCOCCOCC(=O)N[C@H](CCC(N)=O)C(=O)N[C@@H](CCCNC(=N)N)C(=O)N1CCC[C@H]1C(=O)N(C)[C@@H](CCCNC(=N)N)C(=O)N[C@@](C)(CC(C)C)C(=O)N[C@@H](CO)C(=O)N[C@@H](Cc1c[nH]cn1)C(=O)N[C@@H](CCCCN)C(=O)NCC(=O)N1[C@H](C(=O)N[C@@H](CCCC)C(=O)N2CCC[C@H]2C(=O)N[C@@H](Cc2ccc(Cl)cc2)C(=O)O)C[C@@H]2CCCC[C@@H]21)C(=O)O [compound 386] ({Tridecanoyl-γGlu-AEEA-AEEA}-[dQ]RP[NMeR][αMeL]SHKG[Oic][Nle]P[Phe(4-Cl)]-OH)
,< 1%,< 1%,4%,0.196 nM,,,CCCCCCCCCCCCC(=O)N[C@@H](CCC(=O)NCCOCCOCC(=O)NCCOCCOCC(=O)N[C@@H](CCC(N)=O)C(=O)N[C@@H](CCCNC(=N)N)C(=O)N1CCC[C@H]1C(=O)N(C)[C@@H](CCCNC(=N)N)C(=O)N[C@@](C)(CC(C)C)C(=O)N[C@@H](CO)C(=O)N[C@@H](Cc1c[nH]cn1)C(=O)N[C@@H](CCCCN)C(=O)NCC(=O)N1[C@H](C(=O)N[C@@H](CCCC)C(=O)N[C@@H](Cc2ccc(Cl)cc2)C(=O)O)C[C@@H]2CCCC[C@@H]21)C(=O)O [compound 389] ({Tridecanoyl-γGlu-AEEA-AEEA}-QRP[NMeR][αMeL]SHKG[Oic][Nle][Phe(4-Cl)]-OH)
,33%,< 1%,,10.3 nM,35.8 nM,,CCCCCCCCCCCCC(=O)N[C@@H](CCC(=O)NCCOCCOCC(=O)NCCOCCOCC(=O)N[C@@H](CCC(N)=O)C(=O)N[C@@H](CCC(=O)O)C(=O)N1CCC[C@H]1C(=O)N(C)[C@@H](CCCNC(=N)N)C(=O)N[C@@H](CC(C)C)C(=O)N[C@@H](CO)C(=O)N[C@@H](Cc1c[nH]cn1)C(=O)N[C@@H](CCCCN)C(=O)NCC(=O)N1CCC[C@H]1C(=O)N[C@@H](CCCC)C(=O)N1CCC[C@H]1C(=O)N[C@@H](Cc1ccc(Cl)cc1)C(=O)O)C(=O)O [compound 475] ({Tridecanoyl-γGlu-AEEA-AEEA}-QEP[NMeR]LSHKGP[Nle]P[Phe(4-Cl)]-OH)
,64%,< 1%,2%,0.423 nM,,,CCCCCCCCCCCCC(=O)N[C@@H](CCC(=O)NCCOCCOCC(=O)NCCOCCOCC(=O)N[C@@H](CCC(N)=O)C(=O)N[C@@H](CCCNC(=N)N)C(=O)N1CCC[C@H]1C(=O)N[C@@H](CCC(=O)O)C(=O)N[C@@H](CC(C)C)C(=O)N[C@@H](CO)C(=O)N[C@@H](Cc1c[nH]cn1)C(=O)N[C@@H](CCCCN)C(=O)NCC(=O)N1CCC[C@H]1C(=O)N[C@@H](CCCC)C(=O)N1CCC[C@H]1C(=O)N[C@@H](Cc1ccc(Cl)cc1)C(=O)O)C(=O)O [compound 477] ({Tridecanoyl-γGlu-AEEA-AEEA}-QRPELSHKGP[Nle]P[Phe(4-Cl)]-OH)
,> 90%,5%,< 1%,2.02 nM,,,CCCCCCCCCCCCC(=O)N[C@@H](CCC(=O)NCCOCCOCC(=O)NCCOCCOCC(=O)N[C@H](CCC(N)=O)C(=O)N[C@@H](CCCNC(=N)N)C(=O)N1CCC[C@H]1C(=O)N[C@@H](CCC(=O)O)C(=O)N[C@@H](CC1CCCCC1)C(=O)N[C@@H](CO)C(=O)N[C@@H](Cc1c[nH]cn1)C(=O)N[C@@H](CCCCN)C(=O)NCC(=O)N1[C@H](C(=O)N[C@@H](CCCC)C(=O)NC(C)(C)C(=O)N[C@@H](Cc2ccc(Cl)cc2)C(=O)O)C[C@@H]2CCCC[C@@H]21)C(=O)O [compound 526] ({Tridecanoyl-γGlu-AEEA-AEEA}-[dQ]RPE[Cha]SHKG[Oic][Nle][Aib][Phe(4-Cl)]-OH)
1.95 nM,> 90%,40%,18%,,,,CCCCCCCCCCCCC(=O)N[C@@H](CCC(=O)NCCOCCOCC(=O)NCCOCCOCC(=O)NC(CC(=O)N[C@@H](CCCNC(=N)N)C(=O)N1CCCC1(C)C(=O)N[C@@H](CCCCNC(=N)N)C(=O)NC(C)(CC(C)C)C(=O)N[C@@H](CO)C(=O)N[C@@H](Cc1c[nH]cn1)C(=O)N[C@@H](CCCCN)C(=O)NCC(=O)N1[C@H](C(=O)N[C@@H](CCCC)C(=O)N2CCCC2(C)C(=O)N[C@@H](Cc2ccc(Cl)cc2)C(=O)O)C[C@@H]2CCCC[C@@H]21)C(C)C)C(=O)O (stereo partly drawn) [compound 552] ({Tridecanoyl-γGlu-AEEA-AEEA}-[ξβ3hV]R[ξαMeP][hArg][ξαMeL]SHKG[Oic][Nle][ξαMeP][Phe(4-Cl)]-OH)
0.203 nM,,,,,,0.486 nM,CCCCCCCCCCCCCCCC(=O)N[C@@H](CCC(=O)NCCOCCOCC(=O)NCCOCCOCC(=O)N[C@H](CCC(N)=O)C(=O)N[C@@H](CCCNC(=N)N)C(=O)N1CCC[C@H]1C(=O)N(C)[C@@H](CCCNC(=N)N)C(=O)N[C@@](C)(CC(C)C)C(=O)N[C@@H](CO)C(=O)N[C@@H](CN)C(=O)N[C@@H](CCCCN)C(=O)NCC(=O)N1[C@H](C(=O)N[C@@H](CCCC)C(=O)N2CCC[C@H]2CC(=O)N[C@@H](Cc2ccc(Cl)cc2)C(=O)O)C[C@@H]2CCCC[C@@H]21)C(=O)O [compound 630] ({Palmitoyl-γGlu-AEEA-AEEA}-[dQ]RP[NMeR][αMeL]S[Dap]KG[Oic][Nle][β3hP][Phe(4-Cl)]-OH)
0.463 nM,,,,,,3.79 nM,CCCCCCCCCCCCCCCC(=O)N[C@@H](CCC(=O)NCCOCCOCC(=O)NCCOCCOCC(=O)N[C@H](CCC(N)=O)C(=O)N[C@@H](CCCNC(=N)N)C(=O)N1CCC[C@H]1C(=O)N(C)[C@@H](CCCNC(=N)N)C(=O)N[C@@H](CC1CCCCC1)C(=O)N(CCC)CC(=O)N[C@@H](Cc1c[nH]cn1)C(=O)N[C@@H](CCCCN)C(=O)NCC(=O)N1CCCC[C@H]1C(=O)N[C@@H](CCCC)C(=O)NC(C)(C)C(=O)N[C@@H](Cc1ccc(Cl)cc1)C(=O)O)C(=O)O [compound 643] ({Palmitoyl-γGlu-AEEA-AEEA}-[dQ]RP[NMeR][Cha][NPrGly]HKG[Pip][Nle][Aib][Phe(4-Cl)]-OH)
